From ChEMBL document CHEMBL4219190, “Studies on synthesis of novel pyrido[2,3-d]pyrimidine derivatives, evaluation of their antimicrobial activity and molecular docking” (Bioorg Med Chem Lett, 2018)
In brackets after ≈: the same amount, converted by molar mass. Activity calls are given as the source filed them. The rule behind the calls is not given here.

Legend:
[1] = system: Micrococcus luteus; experiment: Antibacterial activity against Micrococcus luteus MTCC 2470 after 24 hrs by well diffusion method; type: functional
[2] = system: Staphylococcus aureus; experiment: Antibacterial activity against Staphylococcus aureus MTCC 96 after 24 hrs by well diffusion method; type: functional
[3] = system: Micrococcus luteus; experiment: Bactericidal activity against Micrococcus luteus MTCC 2470 incubated for 24 hrs followed by transfer of microbial suspension to Mueller Hinton agar plates and measured after 24 hrs post transfer; type: functional; conditions: MTCC 2470, 24 h
[4] = system: Staphylococcus aureus; experiment: Antibacterial activity against Staphylococcus aureus MLS16 MTCC 2940 after 24 hrs by well diffusion method; type: functional
[5] = system: Pseudomonas aeruginosa; experiment: Antibacterial activity against Pseudomonas aeruginosa MTCC 2453 after 24 hrs by well diffusion method; type: functional
[6] = system: Escherichia coli; experiment: Antibacterial activity against Escherichia coli MTCC 739 after 24 hrs by well diffusion method; type: functional
[7] = system: Bacillus subtilis; experiment: Antibiofilm activity against Bacillus subtilis MTCC 121 after 24 hrs by crystal violet staining-based assay; type: functional, organism-based; conditions: Bacillus subtilis, MTCC 121, 24 h; read-out: IC50
[8] = system: Pseudomonas aeruginosa; experiment: Antibiofilm activity against Pseudomonas aeruginosa MTCC 2453 after 24 hrs by crystal violet staining-based assay; type: functional, organism-based; conditions: Pseudomonas aeruginosa, MTCC 2453, 24 h; read-out: IC50
[9] = system: Bacillus subtilis; experiment: Bactericidal activity against Bacillus subtilis MTCC 121 incubated for 24 hrs followed by transfer of microbial suspension to Mueller Hinton agar plates and measured after 24 hrs post transfer; type: functional; conditions: MTCC 121, 24 h
[10] = system: Raoultella planticola; experiment: Antibacterial activity against Klebsiella planticola MTCC 530 after 24 hrs by well diffusion method; type: functional
[11] = system: Escherichia coli; experiment: Bactericidal activity against Escherichia coli MTCC 739 incubated for 24 hrs followed by transfer of microbial suspension to Mueller Hinton agar plates and measured after 24 hrs post transfer; type: functional; conditions: MTCC 739, 24 h
[12] = system: Staphylococcus aureus; experiment: Bactericidal activity against Staphylococcus aureus MTCC 96 incubated for 24 hrs followed by transfer of microbial suspension to Mueller Hinton agar plates and measured after 24 hrs post transfer; type: functional; conditions: MTCC 96, 24 h
[13] = system: Staphylococcus aureus; experiment: Antibiofilm activity against Staphylococcus aureus MTCC 96 after 24 hrs by crystal violet staining-based assay; type: functional, organism-based; conditions: Staphylococcus aureus, MTCC 96, 24 h; read-out: IC50
[14] = system: Bacillus subtilis; experiment: Antibacterial activity against Bacillus subtilis MTCC 121 after 24 hrs by well diffusion method; type: functional
[15] = system: Raoultella planticola; experiment: Bactericidal activity against Klebsiella planticola MTCC 530 incubated for 24 hrs followed by transfer of microbial suspension to Mueller Hinton agar plates and measured after 24 hrs post transfer; type: functional; conditions: MTCC 530, 24 h
[16] = system: Staphylococcus aureus; experiment: Bactericidal activity against Staphylococcus aureus MLS16 MTCC 2940 incubated for 24 hrs followed by transfer of microbial suspension to Mueller Hinton agar plates and measured after 24 hrs post transfer; type: functional; conditions: MLS16 MTCC 2940, 24 h
[17] = system: Pseudomonas aeruginosa; experiment: Bactericidal activity against Pseudomonas aeruginosa MTCC 2453 incubated for 24 hrs followed by transfer of microbial suspension to Mueller Hinton agar plates and measured after 24 hrs post transfer; type: functional; conditions: MTCC 2453, 24 h
[18] = system: Raoultella planticola; experiment: Antibiofilm activity against Klebsiella planticola MTCC 530 after 24 hrs by crystal violet staining-based assay; type: functional, organism-based; conditions: Klebsiella planticola, MTCC 530, 24 h; read-out: IC50
[19] = system: Staphylococcus aureus; experiment: Antibiofilm activity against Staphylococcus aureus MLS16 MTCC 2940 after 24 hrs by crystal violet staining-based assay; type: functional, organism-based; conditions: Staphylococcus aureus, MLS16 MTCC 2940, 24 h; read-out: IC50

In the case of `O=C(O)c1cn(C2CC2)c2cc(N3CCNCC3)c(F)cc2c1=O` [CIPROFLOXACIN], the MIC ([1]; MTCC 2470, 24 h) is reported as 0.9 µg/mL (≈ 2.72 µM), the MIC ([2]; MTCC 96, 24 h) is reported as 0.9 µg/mL (≈ 2.72 µM) and the MBC [3] is reported as 1.17 µg/mL (≈ 3.53 µM). It also gave an MIC ([4]; MLS16 MTCC 2940, 24 h) of 0.9 µg/mL (≈ 2.72 µM), an MIC ([5]; MTCC 2453, 24 h) of 0.9 µg/mL (≈ 2.72 µM) and an MIC ([6]; MTCC 739, 24 h) of 0.9 µg/mL (≈ 2.72 µM). It also gave an IC50 [7] of 0.23 µg/mL (≈ 0.694 µM), an IC50 [8] of 0.32 µg/mL (≈ 0.966 µM) and an MBC [9] of 0.58 µg/mL (≈ 1.75 µM). The MIC ([10]; MTCC 530, 24 h) was 0.9 µg/mL (≈ 2.72 µM), the MBC [11] was 0.58 µg/mL (≈ 1.75 µM) and the MBC [12] was 0.58 µg/mL (≈ 1.75 µM). It also gave an IC50 [13] of 0.21 µg/mL (≈ 0.634 µM), an MIC ([14]; MTCC 121, 24 h) of 0.9 µg/mL (≈ 2.72 µM) and an MBC [15] of 0.58 µg/mL (≈ 1.75 µM). For the same compound, the MBC [16] was 1.17 µg/mL (≈ 3.53 µM), the MBC [17] was 1.17 µg/mL (≈ 3.53 µM) and the IC50 [18] was 0.29 µg/mL (≈ 0.875 µM). For the same compound, the IC50 [19] was 0.24 µg/mL (≈ 0.724 µM).

`CCCNC(=O)c1nc(-c2ccc(OC)cc2)c2c(C(F)(F)F)cc(-c3ccccc3)nc2n1` was tested, and the MIC [1] was “inactive”, the MIC [2] was “inactive” and the MIC [4] was “inactive”. For the same compound, the MIC [5] was “inactive”, the MIC [6] was “inactive” and the MIC [10] was “inactive”. For the same compound, the MIC [14] was “inactive”.

In the case of `COc1ccc(-c2nc(C(=O)N3CCN(CCO)CC3)nc3nc(-c4ccccc4)cc(C(F)(F)F)c23)cc1`, the MIC [1] is reported as “inactive”, the MIC [2] is reported as “inactive” and the MIC [4] is reported as “inactive”. The MIC [5] was “inactive”, the MIC [6] was “inactive” and the MIC [10] was “inactive”. For the same compound, the MIC [14] was “inactive”.
